Reference: patent US10774064B2 (Cadent Therapeutics, Inc., priority 2016, dated 2020)

Molecular target: T1, small-conductance Ca2+-activated K+ channels (SK channels, subtype 2) (Homo sapiens, UniProt Q9H2S1)
T1 construct: expressed in transfected cells; host or cells: HEK293
Assay: whole-cell patch-clamp of ionic current through SK2 channels in HEK293 cells (SC100)
Assay type: cell-based
Details: concentration that increases the basal current by 100%; HEK293 cells expressing SK2 channels
Summary of the method: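 Whole-cell patch-clamp recording of current in HEK293 cells expressing SK2 channels. SC100 is the compound concentration that increases basal current by 100%.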

Row | SMILES | SC100
1 | Cc1cc(C)n(-c2nc(NC3CCC(F)(F)C3)cc(C(C)(C)O)n2)n1 (stereo not shown) [Compound 214, 2-(6-((3,3-difluorocyclopentyl)amino)-2-(3,5-dimethyl-1H-pyrazol-1-yl)pyrimidin-4-yl)propan-2-ol] | + (+ means >1 uM)
2 | FCc1ccn(-c2nc(NC3CCC(F)(F)CC3)cc(N3CCSCC3)n2)n1 [Compound 284, N-(4,4-difluorocyclohexyl)-2-(3-(fluoromethyl)-1H-pyrazol-1-yl)-6-thiomorpholinopyrimidin-4-amine] | ++ (++ means 200 nM-1000 nM)
3 | Cc1cc(C)n(-c2nc(NC3CCC(F)(F)C3)cc(C(F)F)n2)n1 (stereo not shown) [Compound 168, N-(3,3-difluorocyclopentyl)-6-(difluoromethyl)-2-(3,5-dimethyl-1H-pyrazol-1-yl)pyrimidin-4-amine] | + (+ means >1 uM)
4 | CC(=O)N1CCN(c2cc(-n3nc(C)cc3C)nc(NC3CCC(F)(F)CC3)n2)CC1 [Compound 101, 1-(4-(2-((4,4-difluorocyclohexyl)amino)-6-(3,5-dimethyl-1H-pyrazol-1-yl)pyrimidin-4-yl)piperazin-1-yl)ethan-1-one] | ++ (++ means 200 nM-1000 nM)
5 | CC(=O)NCc1cc(NC2CCC(F)(F)CC2)nc(-n2ccc(CF)n2)c1 [Compound 312, N-((2-((4,4-difluorocyclohexyl)amino)-6-(3-(fluoromethyl)-1H-pyrazol-1-yl)pyridin-4-yl)methyl)acetamide] | ++ (++ means 200 nM-1000 nM)
6 | CCc1cc(C)n(-c2nc(C)cc(NC3CCC(F)(F)CC3)n2)n1 [Compound 249, N-(4,4-difluorocyclohexyl)-2-(3-ethyl-5-methyl-1H-pyrazol-1-yl)-6-methyl pyrimidin-4-amine] | + (+ means >1 uM)
7 | Cc1cc(C)n(-c2cc3c(ncn3C)c(NC3CCC(F)(F)CC3)n2)n1 [Compound 266, N-(4,4-difluorocyclohexyl)-6-(3,5-dimethyl-1H-pyrazol-1-yl)-1-methyl-1H-imidazo[4,5-c]pyridin-4-amine] | ++ (++ means 200 nM-1000 nM)
8 | Cc1cc(NC2CCC(F)(F)CC2)nc(-n2cc(C)c(CO)n2)n1 [Compound 236, (1-(4-((4,4-difluorocyclohexyl)amino)-6-methylpyrimidin-2-yl)-4-methyl-1H-pyrazol-3-yl)methanol] | + (+ means >1 uM)
9 | COCC1CN(c2cc(NC3CCC(F)(F)CC3)nc(-n3nc(C)cc3C)n2)CCO1 (stereo not shown) [Compound 194, N-(4,4-difluorocyclohexyl)-2-(3,5-dimethyl-1H-pyrazol-1-yl)-6-(2-(methoxymethyl)morpholino)pyrimidin-4-amine] | ++ (++ means 200 nM-1000 nM)
10 | CC(C)(C)C(=O)N1CC(Oc2cc(NC3CCC(F)(F)CC3)nc(-n3ccc(CF)n3)n2)C1 [Compound 293, 1-(3-((6-((4,4-difluorocyclohexyl)amino)-2-(3-(fluoromethyl)-1H-pyrazol-1-yl)pyrimidin-4-yl)oxy)azetidin-1-yl)-2,2-dimethylpropan-1-one] | ++ (++ means 200 nM-1000 nM)

Further lines, results first:

Row | SC100 | SMILES
11 | ++ (++ means 200 nM-1000 nM) | CC1(O)CN(c2cc(NC3CCC(F)(F)CC3)nc(-n3ccc(CF)n3)c2)C1 [Compound 326, 1-(2-((4,4-difluorocyclohexyl)amino)-6-(3-(fluoromethyl)-1H-pyrazol-1-yl)pyridin-4-yl)-3-methylazetidin-3-ol]
12 | + (+ means >1 uM) | O=C(NCc1cc(NC2CCC(F)(F)CC2)nc(-n2ccc(CF)n2)n1)C1CCC1 [Compound 328, N-((6-((4,4-difluorocyclohexyl)amino)-2-(3-(fluoromethyl)-1H-pyrazol-1-yl)pyrimidin-4-yl)methyl)cyclobutanecarboxamide]
13 | + (+ means >1 uM) | Cc1cc(NC2CCC(F)(F)C2)nc(-n2ccc(C)n2)n1 (stereo not shown) [Compound 150, N-(3,3-difluorocyclopentyl)-6-methyl-2-(3-methyl-1H-pyrazol-1-yl)pyrimidin-4-amine]
14 | + (+ means >1 uM) | COC(=O)N1CC(Oc2cc(NC3CCC(F)(F)CC3)nc(-n3ccc(C(C)O)n3)n2)C1 (stereo not shown) [Compound 307, methyl 3-((6-((4,4-difluorocyclohexyl)amino)-2-(3-(1-hydroxyethyl)-1H-pyrazol-1-yl)pyrimidin-4-yl)oxy)azetidine-1-carboxylate]

Same assay, conditions: whole-cell patch-clamp, HEK293 cells expressing SK2 channels; concentration that increases the basal current by 100%

Row | SMILES | SC100 (μM)
15 | Fc1cnn(-c2nc(NC3CCC(F)(F)CC3)cc(N3CCOCC3)n2)c1 [IN11030-013-P1, N-(4,4-difluorocyclohexyl)-2-(4-fluoro-1H-pyrazol-1-yl)-6-morpholinopyrimidin-4-amine] | + (+ means >1 uM)
16 | COCc1cnc(-c2nc(C)cs2)nc1NC1CCC(F)(F)CC1 [IN11238-046-P1] | + (+ means >1 uM)
17 | CC(=O)N1CCN(c2cc(-n3ccc(C(F)(F)F)n3)nc(NC3CCC(F)(F)CC3)n2)CC1 [NSSy6607] | ++ (++ means 200 nM-1000 nM)
18 | COC(=O)NCc1cc(NC2CCC(F)(F)CC2)nc(-n2ccc(C)n2)c1 [NSSy5635] | ++ (++ means 200 nM-1000 nM)
19 | Cc1cc(NC2CCC(F)(F)CC2)nc(-n2ccc(C3CC3)n2)c1 [IN11106-062-P1, 6-(3-cyclopropyl-1H-pyrazol-1-yl)-N-(4,4-difluorocyclohexyl)-4-methylpyridin-2-amine] | +++ (+++ means <200 nM)
20 | COCc1cc(NC2CCC(F)(F)CC2)nc(-c2nc(C)co2)n1 [NSSy5818, N-(4,4-difluorocyclohexyl)-6-(methoxymethyl)-2-(4-methyloxazol-2-yl)pyrimidin-4-amine] | + (+ means >1 uM)
21 | CCc1cc(NC2CCC(F)(F)CC2)nc(-n2ccc(C3CC3)n2)n1 [IN11137-072-P1, 2-(3-cyclopropyl-1H-pyrazol-1-yl)-N-(4,4-difluorocyclohexyl)-6-ethylpyrimidin-4-amine] | ++ (++ means 200 nM-1000 nM)
22 | Cc1ccnn1-c1cc(N2CC3(COC3)C2)nc(NC2CCC(F)(F)CC2)n1 [NSSy6523] | + (+ means >1 uM)
23 | Cc1cc(NC2CCC(F)(F)CC2)nc(-n2ccc(C3(C)CC3)n2)n1 [NSSy7012] | + (+ means >1 uM)
24 | Cc1nn(-c2cc(C(O)c3ncco3)cc(NC3CCC(F)(F)CC3)n2)c(C)c1F (stereo not shown) [NSSy6473] | ++ (++ means 200 nM-1000 nM)
25 | Cc1cc(C)n(-c2cc(C)c(NC3CCC(F)(F)CC3)nn2)n1 [IN10966-083-P1, N-(4,4-difluorocyclohexyl)-6-(3,5-dimethyl-1H-pyrazol-1-yl)-4-methylpyridazin-3-amine] | + (+ means >1 uM)
26 | COCc1cc(-n2nc(C)cc2C)nc(NC2CCC(F)(F)CC2)n1 [NSSy6724] | ++ (++ means 200 nM-1000 nM)
27 | COC(=O)c1nc(C)cc(NC2CCC(F)(F)CC2)n1 [IN11273-006-P1, methyl 4-((4,4-difluorocyclohexyl)amino)-6-methylpyrimidine-2-carboxylate] | + (+ means >1 uM)
28 | COC(C)c1cc(NC2CCC(F)(F)CC2)nc(-n2ccc(C)n2)n1 (stereo not shown) [IN10973-083-P1, N-(4,4-difluorocyclohexyl)-6-(1-methoxyethyl)-2-(3-methyl-1H-pyrazol-1-yl)pyrimidin-4-amine] | + (+ means >1 uM)

Next, values leading:

Row | SC100 (μM) | SMILES
29 | + (+ means >1 uM) | COc1cnc(-n2nc(C)cc2C)nc1NC1CCC(F)(F)CC1 [NSSy7031]
30 | + (+ means >1 uM) | Cc1ccn(-c2cc(C(C)O)nc(NC3CCC(F)(F)CC3)n2)n1 (stereo not shown) [NSSy6650]
31 | + (+ means >1 uM) | COc1cc(NC2CCC(F)(F)CC2)nc(-c2cccc(C)n2)n1 [NSSy6889]
32 | ++ (++ means 200 nM-1000 nM) | CC(=O)N1CCC(Oc2cc(NC3CCC(F)(F)CC3)nc(-n3ccc(C)n3)c2)CC1 [IN11218-025-P1, 1-(4-((2-((4,4-difluorocyclohexyl)amino)-6-(3-methyl-1H-pyrazol-1-yl)pyridin-4-yl)oxy)piperidin-1-yl)ethan-1-one]
33 | + (+ means >1 uM) | Cc1nc(NC2CCC(F)(F)CC2)nc(-n2ccc(C3CC3)n2)n1 [NSSy7043, 4-(3-cyclopropyl-1H-pyrazol-1-yl)-N-(4,4-difluorocyclohexyl)-6-methyl-1,3,5-triazin-2-amine]
34 | + (+ means >1 uM) | Cc1nc(NC2CCC(F)(F)CC2)nc(-n2nc(C)c(Br)c2C)c1Br [NSSy6736, 5-bromo-4-(4-bromo-3,5-dimethyl-1H-pyrazol-1-yl)-N-(4,4-difluorocyclohexyl)-6-methylpyrimidin-2-amine]
35 | ++ (++ means 200 nM-1000 nM) | COCCN(C)Cc1cc(NC2CCC(F)(F)CC2)nc(-n2ccc(C)n2)c1 [IN11039-017-P1]
36 | + (+ means >1 uM) | Cc1ccn(-c2nc(NC3CCCCC3C)cc(C(C)O)n2)n1 (stereo not shown) [IN10880-059-P1]
37 | + (+ means >1 uM) | Cc1csc(-c2cc(C#N)nc(NC3CCC(F)(F)CC3)n2)n1 [NSSy6710, 2-((4,4-difluorocyclohexyl)amino)-6-(4-methylthiazol-2-yl)pyrimidine-4-carbonitrile]
38 | ++ (++ means 200 nM-1000 nM) | Cc1ccn(-c2cc(C(C)(C)O)cc(NC3CCC(F)(F)CC3)n2)n1 [NSSy5846]
39 | + (+ means >1 uM) | Cc1cc(C)n(-c2cc(NC3CCC(F)(F)CC3)cc(N3CCOCC3)n2)n1 [IN10991-065-P1, N-(4,4-difluorocyclohexyl)-2-(3,5-dimethyl-1H-pyrazol-1-yl)-6-morpholinopyridin-4-amine]
40 | + (+ means >1 uM) | COc1cc(NC2CCOCC2)nc(-c2nc(C)cs2)n1 [IN11106-004-P1]
41 | + (+ means >1 uM) | Cn1cnc(COc2cc(NC3CCC(F)(F)CC3)nc(-n3ccc(C4CC4)n3)n2)n1 [IN11106-066-P1]
42 | + (+ means >1 uM) | Cc1ccn(-c2cc(NC3CCC(F)(F)CC3)cc(N3CCOCC3)n2)n1 [IN10973-098-P1, N-(4,4-difluorocyclohexyl)-2-(3-methyl-1H-pyrazol-1-yl)-6-morpholinopyridin-4-amine]
43 | ++ (++ means 200 nM-1000 nM) | Cc1cc(C)n(-c2nc(NC3CCC(F)(F)CC3)cc(N3CC(F)(F)OC(F)(F)C3)n2)n1 [IN11030-035-P1]
